Drawing on patent US9029386B2, “Pyridine derivatives useful as kinase inhibitors” (YM Biosciences Australia Pty Ltd, priority 2006, dated 2015), this text covers inhibition and IC50 for nine molecules.

Each structure is given as a SMILES string.

The target of one assay is T1, Flt1(h) (Homo sapiens, UniProt P17948).
T1 construct: purchased Upstate Biotechnology (Dundee, UK), KinaseProfiler service
The assay is described as follows: KinaseProfiler assay (Upstate), Flt1. The assay is classed as biochemical. As for the experimental part: (§1) Further enzyme assays were conducted at Upstate Biotechnology (Dundee, UK) in the KinaseProfiler™ Assay system.
(§2) The general protocol is as follows. All kinases are pre-diluted to a 10× working concentration prior to addition into the assay. The composition of the dilution buffer for the kinases is 20 mM MOPS pH 7.0, 1 mM EDTA, 0.1% β-mercaptoethanol, 0.01% Brij-35, 5% glycerol, 1 mg/ml BSA. All substrates are dissolved and diluted to working stocks in de-ionised water.
In a final reaction volume of 25 Flt1 (h) (5-10 mU) is incubated with 8 mM MOPS pH 7.0, 0.2 mM EDTA, 250 μM […], 10 mM MgAcetate and [γ-33P-ATP] (specific activity approx. 500 cpm/pmol, concentration as required). The reaction is initiated by the addition of the MgATP mix. After incubation for 40 minutes at room temperature, the reaction is stopped by the addition of 5 μl of a 3% phosphoric acid solution. 10 μl of the reaction is then spotted onto a P30 filtermat and washed three times for 5 minutes in 75 mM phosphoric acid and once in methanol prior to drying and scintillation counting.

Another assay deals with T2, Flt4(h) (Homo sapiens, UniProt P35916).
T2 construct: purchased Upstate Biotechnology (Dundee, UK), KinaseProfiler service
Put plainly: KinaseProfiler assay (Upstate), Flt4. The assay is classed as biochemical. How it is done:
as §1, §2

A further assay deals with T3, Hck(h) (Homo sapiens, UniProt P08631).
T3 construct: purchased Upstate Biotechnology (Dundee, UK), KinaseProfiler service
Put plainly: KinaseProfiler assay (Upstate), Hck. The assay is classed as biochemical. How it is done: as §1, §2
In a final reaction volume of 25 μl, Hck (h) (5-10 mU) is incubated with 8 mM MOPS pH 7.0, 0.2 mM EDTA, 250 μM […] (Cdc2 peptide), 10 mM MgAcetate and [γ-33P-ATP] (specific activity approx. 500 cpm/pmol, concentration as required). The reaction is initiated by the addition of the MgATP mix. After incubation for 40 minutes at room temperature, the reaction is stopped by the addition of 5 μl of a 3% phosphoric acid solution. 10 μl of the reaction is then spotted onto a P30 filtermat and washed three times for 5 minutes in 75 mM phosphoric acid and once in methanol prior to drying and scintillation counting.

A further assay has as its target T4, PTK5(h) (Homo sapiens, UniProt P42685).
T4 construct: purchased Upstate Biotechnology (Dundee, UK), KinaseProfiler service
The assay is described as follows: KinaseProfiler assay (Upstate), PTK5. The format is biochemical. As for the experimental part:
as §1, §2

A further assay concerns the target T5, Ret(h) (Homo sapiens, UniProt P07949).
T5 construct: purchased Upstate Biotechnology (Dundee, UK), KinaseProfiler service
The assay is described as follows: KinaseProfiler assay (Upstate), Ret. The format is biochemical. How it is done:
as §1, §2
In a final reaction volume of 25 μl, Ret (h) (5-10 mU) is incubated with 8 mM MOPS pH 7.0, 0.2 mM EDTA, 250 μM […], 10 mM MgAcetate and [γ-33P-ATP] (specific activity approx. 500 cpm/pmol, concentration as required). The reaction is initiated by the addition of the MgATP mix. After incubation for 40 minutes at room temperature, the reaction is stopped by the addition of 5 μl of a 3% phosphoric acid solution. 10 μl of the reaction is then spotted onto a P30 filtermat and washed three times for 5 minutes in 75 mM phosphoric acid and once in methanol prior to drying and scintillation counting.

In assay [1] the target is T6, kinase domain of human CSF1-R (Homo sapiens, UniProt P07333).
T6 construct: from codon I553 to Q961; made in house; host or cells: Sf9 insect cells (baculovirus)
T6 sequence (P07333 553-961): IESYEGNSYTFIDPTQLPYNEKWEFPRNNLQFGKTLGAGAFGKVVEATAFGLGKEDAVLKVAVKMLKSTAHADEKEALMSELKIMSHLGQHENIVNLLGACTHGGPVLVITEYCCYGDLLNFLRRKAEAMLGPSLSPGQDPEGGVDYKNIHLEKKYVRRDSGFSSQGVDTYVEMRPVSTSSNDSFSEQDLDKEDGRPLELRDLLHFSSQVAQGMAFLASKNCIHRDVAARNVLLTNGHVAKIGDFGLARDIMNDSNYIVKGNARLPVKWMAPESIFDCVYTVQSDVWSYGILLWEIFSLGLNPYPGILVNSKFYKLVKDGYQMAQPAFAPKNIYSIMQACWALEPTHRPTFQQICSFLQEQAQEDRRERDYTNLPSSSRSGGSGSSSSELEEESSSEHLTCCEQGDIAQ
Put plainly: Alphascreen protein tyrosine kinase assay, CSF-1R. The assay is classed as biochemical. How it is done:
For screening purposes, compounds were diluted in 96 well plates at a concentration of 20 μM. Plates were warmed at 37° C. for 30 minutes before assay.
The kinase domain of human CSF1-R from codon I553 to Q961 was cloned into the pDEST-20 expression vector (Invitrogen). The CSF1-R plasmid was then transformed into competent DH10Bac cells (Gibco), and the recombinant baculovirus produced prepared for transfection into Sf9 insect cells.
Baculovirus preparations from each of construct were infected into five liters of SF9 cells (Invitrogen) grown in SF-900 medium (Invitrogen) to a cell density of approximately 1−2×10^6 cells/ml. […] Cells were harvested and lysed. Tyrosine kinase domains were purified by affinity chromatography on a glutathione-agarose column (Scientifix Pty. Ltd. catalog #: GSH-200).
Kinase assays were performed in 384 well Optiplates (Packard) using an Alphascreen Protein Tyrosine Kinase kit. […] Alphascreen phosphotyrosine acceptor beads followed by streptavidin donor beads were added under subdued light. The Alphascreen plates were read on a Packard Fusion Alpha. Inhibitors were added to the assays thirty minutes prior to the addition of ATP. Inhibitors were added in aqueous DMSO, with DMSO concentrations never exceeding 1%.

In the next assay the test system is Baf3-WT. Put plainly: Cellular assay (Alamar Blue), Baf3-WT with mouse IL-3. The assay is classed as cell-based. As to conditions: mouse IL-3 at 5 ng/ml, 72 hr. How it is done: Cells for the assays were prepared by harvesting cells from culture, and then diluting them in the appropriate growth medium to between 40,000 cell/mL and 600,000 cell/mL, depending on the cell line.
The compounds to be tested were added (104, 10× final concentration) to a flat bottomed 96-well plate. The cellular suspension (80 μL per well) was added, and one hour later the growth factor was added (human M-CSF at 20 ng/ml for mNFS-60, mouse IL-3 at 5 ng/ml for Baf3-WT). The plate was then incubated for 72 hr at 37° C., 5% CO2. Alamar Blue (10^4 per well) was added and the plates returned to the incubator for a further 4-8 hours.
The plates were then read using a fluorescence plate reader at excitation 544 nm and emission 590 nm.
(The colour change of resazurin is a common sign of viable cells or microbes.)

T4 sequence (P42685 whole entry): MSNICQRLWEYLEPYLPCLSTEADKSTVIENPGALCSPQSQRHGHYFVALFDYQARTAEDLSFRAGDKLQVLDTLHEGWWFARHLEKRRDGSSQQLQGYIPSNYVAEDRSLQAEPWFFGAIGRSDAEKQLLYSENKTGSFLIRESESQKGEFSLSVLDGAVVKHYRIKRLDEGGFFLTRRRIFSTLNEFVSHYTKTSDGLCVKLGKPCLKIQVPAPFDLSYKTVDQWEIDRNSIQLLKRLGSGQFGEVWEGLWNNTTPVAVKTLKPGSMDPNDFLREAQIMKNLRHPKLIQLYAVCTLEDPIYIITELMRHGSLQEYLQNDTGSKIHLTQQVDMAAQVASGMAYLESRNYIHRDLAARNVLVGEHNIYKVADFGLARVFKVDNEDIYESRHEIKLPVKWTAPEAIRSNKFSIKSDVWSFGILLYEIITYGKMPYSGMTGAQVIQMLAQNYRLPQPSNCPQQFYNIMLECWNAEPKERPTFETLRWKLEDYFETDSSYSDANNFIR
T2 sequence (P35916 25-1363): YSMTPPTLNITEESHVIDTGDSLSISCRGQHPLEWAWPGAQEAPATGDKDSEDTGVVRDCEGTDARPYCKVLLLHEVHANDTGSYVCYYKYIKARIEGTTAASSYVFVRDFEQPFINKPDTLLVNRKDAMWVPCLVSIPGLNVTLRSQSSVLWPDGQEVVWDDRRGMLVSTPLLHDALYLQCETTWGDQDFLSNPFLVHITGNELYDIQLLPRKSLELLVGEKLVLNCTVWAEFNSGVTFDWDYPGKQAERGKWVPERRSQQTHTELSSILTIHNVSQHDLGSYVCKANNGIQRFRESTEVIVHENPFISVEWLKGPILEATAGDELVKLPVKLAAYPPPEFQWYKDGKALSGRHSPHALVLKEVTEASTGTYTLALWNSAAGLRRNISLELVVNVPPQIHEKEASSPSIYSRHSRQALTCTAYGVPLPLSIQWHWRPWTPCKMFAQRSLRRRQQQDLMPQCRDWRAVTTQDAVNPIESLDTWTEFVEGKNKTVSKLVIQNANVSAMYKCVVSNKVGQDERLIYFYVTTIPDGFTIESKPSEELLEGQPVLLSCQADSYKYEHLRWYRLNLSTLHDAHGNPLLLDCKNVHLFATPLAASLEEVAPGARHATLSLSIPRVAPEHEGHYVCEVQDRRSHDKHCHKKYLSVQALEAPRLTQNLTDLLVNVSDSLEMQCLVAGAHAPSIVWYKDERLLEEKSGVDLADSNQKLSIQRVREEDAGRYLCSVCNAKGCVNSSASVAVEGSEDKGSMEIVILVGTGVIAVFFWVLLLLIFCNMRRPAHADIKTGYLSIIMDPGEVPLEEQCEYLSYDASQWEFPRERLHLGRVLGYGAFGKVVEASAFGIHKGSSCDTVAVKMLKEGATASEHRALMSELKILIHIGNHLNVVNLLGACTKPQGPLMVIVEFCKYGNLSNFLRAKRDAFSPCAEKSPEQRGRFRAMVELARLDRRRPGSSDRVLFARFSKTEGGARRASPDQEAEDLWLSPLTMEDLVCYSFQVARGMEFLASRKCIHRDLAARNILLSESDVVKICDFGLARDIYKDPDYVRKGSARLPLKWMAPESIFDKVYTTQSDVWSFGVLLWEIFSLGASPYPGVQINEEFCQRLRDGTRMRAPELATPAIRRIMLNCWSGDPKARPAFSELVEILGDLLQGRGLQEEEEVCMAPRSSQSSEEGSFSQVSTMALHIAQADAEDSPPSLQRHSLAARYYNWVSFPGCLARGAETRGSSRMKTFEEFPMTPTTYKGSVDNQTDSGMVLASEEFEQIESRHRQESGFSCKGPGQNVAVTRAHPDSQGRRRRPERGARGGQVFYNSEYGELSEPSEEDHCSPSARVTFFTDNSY
T3 sequence (P08631 whole entry): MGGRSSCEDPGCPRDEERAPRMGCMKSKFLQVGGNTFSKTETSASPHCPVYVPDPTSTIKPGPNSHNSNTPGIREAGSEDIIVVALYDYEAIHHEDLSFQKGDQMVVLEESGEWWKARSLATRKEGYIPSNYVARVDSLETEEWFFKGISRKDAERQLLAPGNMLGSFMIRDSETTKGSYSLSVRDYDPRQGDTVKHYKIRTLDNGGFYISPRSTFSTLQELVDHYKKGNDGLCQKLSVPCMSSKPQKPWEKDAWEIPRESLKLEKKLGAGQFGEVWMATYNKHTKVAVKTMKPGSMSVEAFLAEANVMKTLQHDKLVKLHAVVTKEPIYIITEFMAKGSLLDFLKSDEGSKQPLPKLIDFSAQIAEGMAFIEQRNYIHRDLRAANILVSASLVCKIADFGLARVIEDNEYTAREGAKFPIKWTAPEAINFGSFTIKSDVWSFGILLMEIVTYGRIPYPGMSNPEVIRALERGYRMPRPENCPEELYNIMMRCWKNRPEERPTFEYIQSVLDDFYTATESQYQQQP
T5 sequence (P07949 29-1114): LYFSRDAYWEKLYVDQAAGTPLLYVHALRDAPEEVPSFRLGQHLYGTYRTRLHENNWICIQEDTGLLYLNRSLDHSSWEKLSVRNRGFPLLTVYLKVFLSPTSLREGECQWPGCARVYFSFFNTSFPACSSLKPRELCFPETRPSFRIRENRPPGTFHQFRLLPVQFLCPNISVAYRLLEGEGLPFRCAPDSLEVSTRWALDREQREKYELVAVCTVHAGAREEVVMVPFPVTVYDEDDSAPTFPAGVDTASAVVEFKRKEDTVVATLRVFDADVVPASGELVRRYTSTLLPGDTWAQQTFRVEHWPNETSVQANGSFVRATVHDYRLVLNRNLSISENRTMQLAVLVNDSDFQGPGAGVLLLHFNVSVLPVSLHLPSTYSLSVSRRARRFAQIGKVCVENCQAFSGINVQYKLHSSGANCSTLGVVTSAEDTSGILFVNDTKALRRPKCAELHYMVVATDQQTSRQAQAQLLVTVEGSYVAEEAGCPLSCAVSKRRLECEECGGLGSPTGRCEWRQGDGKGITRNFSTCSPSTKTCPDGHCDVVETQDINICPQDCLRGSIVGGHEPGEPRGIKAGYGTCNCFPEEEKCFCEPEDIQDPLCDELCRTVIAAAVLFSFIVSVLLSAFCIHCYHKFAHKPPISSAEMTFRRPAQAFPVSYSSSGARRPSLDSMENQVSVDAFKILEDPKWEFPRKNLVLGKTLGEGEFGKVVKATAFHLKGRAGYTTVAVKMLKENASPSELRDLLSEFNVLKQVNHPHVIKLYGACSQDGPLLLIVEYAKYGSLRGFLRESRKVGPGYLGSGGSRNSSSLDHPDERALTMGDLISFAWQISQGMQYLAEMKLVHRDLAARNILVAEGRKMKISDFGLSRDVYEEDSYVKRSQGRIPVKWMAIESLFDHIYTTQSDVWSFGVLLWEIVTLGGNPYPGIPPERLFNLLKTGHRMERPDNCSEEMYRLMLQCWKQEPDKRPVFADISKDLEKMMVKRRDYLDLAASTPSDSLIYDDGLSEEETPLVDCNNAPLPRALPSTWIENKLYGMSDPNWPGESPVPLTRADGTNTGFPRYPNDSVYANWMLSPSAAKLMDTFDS
T1 sequence (P17948 27-1338): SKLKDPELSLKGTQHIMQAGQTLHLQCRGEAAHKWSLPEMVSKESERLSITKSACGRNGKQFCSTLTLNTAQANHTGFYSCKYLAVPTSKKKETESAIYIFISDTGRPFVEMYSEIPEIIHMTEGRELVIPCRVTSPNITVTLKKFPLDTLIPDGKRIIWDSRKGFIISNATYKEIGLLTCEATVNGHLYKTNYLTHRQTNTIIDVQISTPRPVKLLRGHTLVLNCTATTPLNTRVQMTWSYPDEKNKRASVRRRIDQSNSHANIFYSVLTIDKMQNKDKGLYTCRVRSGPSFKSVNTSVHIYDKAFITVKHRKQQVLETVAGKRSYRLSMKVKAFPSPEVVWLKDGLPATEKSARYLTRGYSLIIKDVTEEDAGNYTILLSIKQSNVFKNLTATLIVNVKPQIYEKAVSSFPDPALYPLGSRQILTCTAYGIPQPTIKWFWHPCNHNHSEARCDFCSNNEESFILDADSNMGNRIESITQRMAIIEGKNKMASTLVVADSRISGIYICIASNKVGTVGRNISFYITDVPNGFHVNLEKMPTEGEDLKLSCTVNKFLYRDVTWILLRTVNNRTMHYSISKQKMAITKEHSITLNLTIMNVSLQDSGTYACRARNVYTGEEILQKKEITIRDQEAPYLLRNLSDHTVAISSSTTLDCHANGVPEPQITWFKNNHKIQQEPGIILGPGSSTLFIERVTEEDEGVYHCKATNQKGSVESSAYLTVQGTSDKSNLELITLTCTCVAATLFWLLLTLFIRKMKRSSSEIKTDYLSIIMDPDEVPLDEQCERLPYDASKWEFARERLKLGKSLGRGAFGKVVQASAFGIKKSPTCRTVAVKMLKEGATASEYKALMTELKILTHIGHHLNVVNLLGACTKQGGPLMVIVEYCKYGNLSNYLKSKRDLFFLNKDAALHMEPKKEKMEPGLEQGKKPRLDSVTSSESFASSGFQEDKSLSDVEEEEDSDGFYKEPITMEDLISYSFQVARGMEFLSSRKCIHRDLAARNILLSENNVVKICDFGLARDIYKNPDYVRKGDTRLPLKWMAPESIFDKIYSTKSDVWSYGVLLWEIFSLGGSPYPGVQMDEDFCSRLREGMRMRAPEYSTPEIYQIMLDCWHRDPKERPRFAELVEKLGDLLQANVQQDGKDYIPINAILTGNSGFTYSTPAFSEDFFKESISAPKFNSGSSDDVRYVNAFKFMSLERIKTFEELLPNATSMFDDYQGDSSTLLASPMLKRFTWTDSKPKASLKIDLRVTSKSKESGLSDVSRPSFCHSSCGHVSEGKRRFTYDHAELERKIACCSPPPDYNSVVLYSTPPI

For orientation: inhibition means the relative decrease from the control value, in per cent. Consider `Cc1cccc(C(=O)Nc2ccc(C)c([C@H](C)Nc3cncc(Cl)n3)c2)c1` [Compound 168], for which the inhibition at 0.1 µM at Flt1(h) was found to be 91%; against Flt4(h) it was 96%; on Hck(h), 96%; against PTK5(h), 100%; on Ret(h) it was 39%. Besides, the inhibition at 1 µM against Flt1(h) worked out at 100%; on Flt4(h), 97%; on Hck(h), 101%; against PTK5(h), 100%; against Ret(h), 95%.

The term IC50 denotes the midpoint of a concentration-inhibition curve. High values mean weaker potency, low ones greater potency. For `Cc1cccc(C(=O)Nc2cccc([C@H](C)Nc3cncc(-c4ccc(S(N)(=O)=O)cc4)n3)c2)c1` [Compound 77], the IC50 in assay [1] is less than 0.1 µM; in the assay with Baf3-WT, more than 10 µM. Besides, the inhibition at 0.1 µM against Flt1(h) was 98%; on Flt4(h), 98%; on Hck(h), 64%; against PTK5(h) it was 91%; against Ret(h) it was 22%. The inhibition at 1 µM at Flt1(h) came to 100%; at Flt4(h), 97%; at Hck(h), 95%; at PTK5(h), 99%; at Ret(h), 67%.

With `C[C@H](Nc1cncc(-c2cccc(N3CCOCC3)c2)n1)c1cccc(NC(=O)c2cccc(C(F)(F)F)c2)c1` [Compound 149], the concentration for half-maximal inhibition (IC50) in assay [1] is less than 0.1 µM; with Baf3-WT it was more than 10 µM. Besides, the inhibition at 0.1 µM at Flt1(h) amounted to 56%; against Flt4(h), 96%; at Hck(h), 94%; at PTK5(h) it was 95%; on Ret(h), 89%. Besides, the inhibition at 1 µM at Flt1(h) worked out at 99%; on Flt4(h) it was 99%; on Hck(h), 100%; at PTK5(h), 100%; against Ret(h), 96%.

Take `Cc1cccc(C(=O)Nc2cccc([C@H](C)Nc3cncc(-c4cccc(N5CCOCC5)c4)n3)c2)c1` [Compound 147]: the IC50 is less than 0.1 µM in assay [1] and more than 10 µM with Baf3-WT. The inhibition at 0.1 µM came to 95% against Flt1(h); 100% on Flt4(h); 90% against Hck(h); 94% against PTK5(h); 68% against Ret(h). For the same molecule, the inhibition at 1 µM on Flt1(h) turned out to be 100%; against Flt4(h) it was 99%; on Hck(h), 100%; at PTK5(h), 100%; against Ret(h), 92%.

Turning to `C[C@H](Nc1cncc(Cl)n1)c1cccc(NC(=O)c2cccc(C(F)(F)F)c2)c1` [Compound 114, (S)—N-(3-(1-(6-chloropyrazin-2-ylamino)ethyl)phenyl)-3-(trifluoromethyl)benzamide], the inhibition at 0.1 µM at Flt1(h) was 85%; against Flt4(h) it was 92%; on Hck(h), 74%; on PTK5(h), 98%; at Ret(h) it was 66%. The inhibition at 1 µM against Flt1(h) was determined as 99%; against Flt4(h), 99%; on Hck(h), 102%; against PTK5(h) it was 100%; at Ret(h), 95%. This molecule displayed an IC50 in the assay with Baf3-WT of more than 10 µM.

For the molecule `C[C@H](Nc1cncc(-c2ccc(N3CCN(C)CC3)cc2)n1)c1cccc(NC(=O)c2cccc(C(F)(F)F)c2)c1` [Compound 148], the half-maximal inhibitory concentration (IC50) was less than 0.1 µM in assay [1] and less than 10 µM in the assay on Baf3-WT. The inhibition at 0.1 µM against Flt1(h) is 92%; at Flt4(h), 96%; against Hck(h), 96%; against PTK5(h), 99%; on Ret(h), 89%. Also, the inhibition at 1 µM against Flt1(h) worked out at 99%; against Flt4(h) it was 99%; against Hck(h), 99%; at PTK5(h), 100%; against Ret(h) it was 96%.

Consider `Cc1cccc(C(=O)Nc2cccc([C@H](C)Nc3cncc(C(N)=O)n3)c2)c1` [Compound 133, (S)-6-(1-(3-(3-methylbenzamido)phenyl)ethylamino)pyrazine-2-carboxamide], for which the 50% inhibitory concentration (IC50) in assay [1] was less than 0.1 µM; in the assay on Baf3-WT, more than 10 µM. Also, the inhibition at 0.1 µM was determined as 92% against Flt1(h); 95% on Flt4(h); 23% against Hck(h); 80% against PTK5(h); 1% at Ret(h). The inhibition at 1 µM at Flt1(h) stood at 99%; on Flt4(h) it was 100%; on Hck(h) it was 84%; against PTK5(h) it was 98%; on Ret(h) it was 36%.

`Cc1cccc(C(=O)Nc2cccc([C@H](C)Nc3cncc(-n4ccnc4)n3)c2)c1` [Compound 143, (S)—N-(3-(1-(6-(1H-imidazol-1-yl)pyrazin-2-ylamino)ethyl)phenyl)-3-methylbenzamide]: the IC50 in assay [1] is less than 0.1 µM; in the assay on Baf3-WT, less than 10 µM. For the same molecule, the inhibition at 0.1 µM stood at 90% on Flt1(h); 95% against Flt4(h); 55% against Hck(h); 88% on PTK5(h); 8% against Ret(h). Besides, the inhibition at 1 µM came to 96% against Flt1(h); 99% against Flt4(h); 82% on Hck(h); 96% at PTK5(h); 58% against Ret(h).

As to `Cc1cccc(C(=O)Nc2cccc([C@H](C)Nc3cncc(-c4ccc(N5CCN(C)CC5)cc4)n3)c2)c1` [Compound 129], the figures for the IC50 (in assay [1]; in the assay on Baf3-WT) were less than 0.1 µM and less than 10 µM, respectively. The inhibition at 0.1 µM came to 96% against Flt1(h); 100% against Flt4(h); 84% at Hck(h); 99% against PTK5(h); 19% against Ret(h). Besides, the inhibition at 1 µM at Flt1(h) is 100%; on Flt4(h), 100%; at Hck(h) it was 99%; on PTK5(h) it was 100%; at Ret(h), 75%.
